In this assay the test system is PDE 4. Nature of the assay: Inhibition of PDE 4 activity (method of Bauer and Schwabe, adapted to microtiter plates). Format: biochemical. The conditions noted are these: Table A.

`CCOc1cc2c(cc1OC)C(c1ccc(S(N)(=O)=O)cc1)=N[C@H]1CCCC[C@@H]21` (racemic) [Compound 1, (+-)-cis-9-Ethoxy-8-methoxy-6-(4-sulfamoylphenyl)-1,2,3,4,4a,10b-hexahydrophenanthridine]: the “inhibitory concentration as -log IC50 (mol/l), Inhibition of PDE 4 activity” value (“inhibitory concentration as -log IC50” below) stood at 8.55.

Regarding `CCOc1cc2c(cc1OC)C(c1ccc(C(=O)Nc3cccnc3)cc1)=NC1CCCCC21` (mixture of isomers) [Compound 6, (+/-)-cis-9-Ethoxy-8-methoxy-6-(4-pyrid-3-ylamidophenyl)-1,2,3,4,4a,10b-hexahydrophenanthridine], the “inhibitory concentration as -log IC50” value is 8.66.

Consider `COc1cc2c(cc1OC)[C@@H]1CCCC[C@@H]1N=C2c1ccc(S(=O)(=O)Nc2ccc(C)cc2)cc1` (single isomer, unassigned) [Compound 5, (-)-cis-8,9-Dimethoxy-6-(4-p-tolylsulfamoylphenyl)-1,2,3,4,4a,10b-hexahydrophenanthridine], for which the “inhibitory concentration as -log IC50” value is 8.30.

For the compound `CCOc1cc2c(cc1OC)C(c1ccc(S(=O)(=O)Nc3ccc(C)cc3)cc1)=N[C@H]1CCCC[C@@H]21` (racemic) [Compound 3, (+/-)-cis-9-Ethoxy-8-methoxy-6-(4-p-tolylsulfamoylphenyl)-1,2,3,4,4a,10b-hexahydrophenanthridine], the “inhibitory concentration as -log IC50” value is recorded as 9.24.

Consider `CCCN(CCC)S(=O)(=O)c1ccc(C2=N[C@H]3CCCC[C@H]3c3cc(OCC)c(OC)cc32)cc1` (racemic) [Compound 2, (+/-)-cis-9-Ethoxy-8-methoxy-6-(4-dipropylsulfamoylphenyl)-1,2,3,4,4a,10b-hexahydrophenanthridine], for which the “inhibitory concentration as -log IC50” value is reported as 9.25.

Values taken from patent US6121279A, “Substituted 6-phenylphenanthridines” (Byk Gulden Lomberg Chemische Fabrik GmbH, priority 1997, dated 2000).
